Reference: patent US11420973B2, “Amide substituted indole compounds useful as TLR inhibitors” (BRISTOL-MYERS SQUIBB COMPANY, priority 2017, dated 2022)
Like-named read-outs stand apart in the source and are kept apart here.

Assays:
human TLR7 = human TLR7 (Homo sapiens (Human), UniProt Q9NYK1); test: TLR7 inhibition reporter assay (HEK-Blue SEAP reporter, gardiquimod stimulation); type: cell-based; details: HEK-Blue cells overexpressing human TLR7, gardiquimod 7.5 μM
human TLR8 = human TLR8 (Homo sapiens (Human), UniProt Q9NR97); test: TLR8 inhibition reporter assay (HEK-Blue SEAP reporter, R848 stimulation);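 note: SEAP driven by IFN-β minimal promoter with NF-κB and AP-1 sites, 22 h incubation, compounds 0.05 nM–50 µM, inhibition scaled between agonist plus DMSO and reference inhibitor wells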
human TLR9 = human TLR9 (Homo sapiens (Human), UniProt Q9NR96); test: TLR9 inhibition reporter assay (HEK-Blue SEAP reporter, ODN2006 stimulation);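 note: SEAP reporter under IFN-β minimal promoter with five NF-κB and AP-1 sites, 22 h incubation, compounds 0.05 nM–50 µM, inhibition relative to agonist plus DMSO versus known inhibitor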
[1] = read-out: TLR8 IC50, HEK-Blue cells overexpressing human TLR8, R848 15.9 μM, SEAP reporter
[2] = read-out: TLR9 IC50, HEK-Blue cells overexpressing human TLR9, ODN2006 5 nM, SEAP reporter

Chain of human TLR9 (Q9NR96 26-1032): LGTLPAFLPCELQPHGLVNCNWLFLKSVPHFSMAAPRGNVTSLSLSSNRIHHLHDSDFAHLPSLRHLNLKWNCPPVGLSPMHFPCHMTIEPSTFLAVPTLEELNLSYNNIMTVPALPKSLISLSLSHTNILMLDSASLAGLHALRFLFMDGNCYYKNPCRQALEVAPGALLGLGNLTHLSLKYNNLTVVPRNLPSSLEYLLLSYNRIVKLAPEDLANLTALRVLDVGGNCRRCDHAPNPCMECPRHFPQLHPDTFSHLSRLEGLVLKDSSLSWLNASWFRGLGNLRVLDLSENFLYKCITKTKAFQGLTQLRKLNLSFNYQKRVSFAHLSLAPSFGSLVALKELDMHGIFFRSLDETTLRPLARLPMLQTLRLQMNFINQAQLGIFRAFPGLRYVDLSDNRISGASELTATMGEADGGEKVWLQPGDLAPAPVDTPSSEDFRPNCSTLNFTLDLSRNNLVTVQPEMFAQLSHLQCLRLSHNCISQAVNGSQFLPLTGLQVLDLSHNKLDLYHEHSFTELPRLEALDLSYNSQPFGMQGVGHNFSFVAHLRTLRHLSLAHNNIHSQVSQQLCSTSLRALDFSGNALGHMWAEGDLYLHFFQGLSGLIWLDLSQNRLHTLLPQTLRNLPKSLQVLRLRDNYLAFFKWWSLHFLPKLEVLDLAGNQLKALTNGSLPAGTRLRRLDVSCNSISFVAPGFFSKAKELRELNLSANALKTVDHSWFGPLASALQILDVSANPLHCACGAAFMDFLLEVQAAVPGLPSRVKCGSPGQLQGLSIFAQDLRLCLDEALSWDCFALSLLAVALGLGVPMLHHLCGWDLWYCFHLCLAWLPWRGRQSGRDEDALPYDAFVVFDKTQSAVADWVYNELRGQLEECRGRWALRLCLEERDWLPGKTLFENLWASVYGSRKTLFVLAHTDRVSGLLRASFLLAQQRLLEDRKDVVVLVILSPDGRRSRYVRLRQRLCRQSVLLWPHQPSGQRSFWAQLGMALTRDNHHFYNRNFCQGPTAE
Chain of human TLR8 (Q9NR97 27-1041): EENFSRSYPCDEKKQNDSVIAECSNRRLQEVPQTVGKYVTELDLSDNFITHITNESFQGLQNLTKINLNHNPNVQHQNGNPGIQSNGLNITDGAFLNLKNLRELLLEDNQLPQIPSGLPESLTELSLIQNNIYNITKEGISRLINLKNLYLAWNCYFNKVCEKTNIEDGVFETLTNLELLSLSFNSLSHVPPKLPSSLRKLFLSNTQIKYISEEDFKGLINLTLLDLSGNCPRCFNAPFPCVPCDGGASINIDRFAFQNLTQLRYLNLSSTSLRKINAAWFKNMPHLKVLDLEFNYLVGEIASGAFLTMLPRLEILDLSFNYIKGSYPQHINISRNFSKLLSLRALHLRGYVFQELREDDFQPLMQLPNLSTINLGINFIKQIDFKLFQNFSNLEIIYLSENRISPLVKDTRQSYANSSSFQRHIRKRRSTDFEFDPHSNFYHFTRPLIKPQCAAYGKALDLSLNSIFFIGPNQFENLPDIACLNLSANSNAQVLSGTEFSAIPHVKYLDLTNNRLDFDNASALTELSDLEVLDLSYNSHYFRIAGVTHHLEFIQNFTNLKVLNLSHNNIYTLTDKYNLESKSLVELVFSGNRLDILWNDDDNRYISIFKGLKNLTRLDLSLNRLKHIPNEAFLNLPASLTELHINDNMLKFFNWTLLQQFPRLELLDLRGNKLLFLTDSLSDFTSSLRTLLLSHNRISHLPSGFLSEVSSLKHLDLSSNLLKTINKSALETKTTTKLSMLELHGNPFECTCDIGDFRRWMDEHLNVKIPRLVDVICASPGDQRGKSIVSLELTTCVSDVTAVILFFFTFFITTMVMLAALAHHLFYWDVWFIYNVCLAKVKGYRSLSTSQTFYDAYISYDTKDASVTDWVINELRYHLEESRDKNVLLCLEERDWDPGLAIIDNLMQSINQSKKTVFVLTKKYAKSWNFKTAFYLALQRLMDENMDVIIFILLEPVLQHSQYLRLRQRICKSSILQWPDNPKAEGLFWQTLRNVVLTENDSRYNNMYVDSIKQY
Chain of human TLR7 (Q9NYK1 27-1049): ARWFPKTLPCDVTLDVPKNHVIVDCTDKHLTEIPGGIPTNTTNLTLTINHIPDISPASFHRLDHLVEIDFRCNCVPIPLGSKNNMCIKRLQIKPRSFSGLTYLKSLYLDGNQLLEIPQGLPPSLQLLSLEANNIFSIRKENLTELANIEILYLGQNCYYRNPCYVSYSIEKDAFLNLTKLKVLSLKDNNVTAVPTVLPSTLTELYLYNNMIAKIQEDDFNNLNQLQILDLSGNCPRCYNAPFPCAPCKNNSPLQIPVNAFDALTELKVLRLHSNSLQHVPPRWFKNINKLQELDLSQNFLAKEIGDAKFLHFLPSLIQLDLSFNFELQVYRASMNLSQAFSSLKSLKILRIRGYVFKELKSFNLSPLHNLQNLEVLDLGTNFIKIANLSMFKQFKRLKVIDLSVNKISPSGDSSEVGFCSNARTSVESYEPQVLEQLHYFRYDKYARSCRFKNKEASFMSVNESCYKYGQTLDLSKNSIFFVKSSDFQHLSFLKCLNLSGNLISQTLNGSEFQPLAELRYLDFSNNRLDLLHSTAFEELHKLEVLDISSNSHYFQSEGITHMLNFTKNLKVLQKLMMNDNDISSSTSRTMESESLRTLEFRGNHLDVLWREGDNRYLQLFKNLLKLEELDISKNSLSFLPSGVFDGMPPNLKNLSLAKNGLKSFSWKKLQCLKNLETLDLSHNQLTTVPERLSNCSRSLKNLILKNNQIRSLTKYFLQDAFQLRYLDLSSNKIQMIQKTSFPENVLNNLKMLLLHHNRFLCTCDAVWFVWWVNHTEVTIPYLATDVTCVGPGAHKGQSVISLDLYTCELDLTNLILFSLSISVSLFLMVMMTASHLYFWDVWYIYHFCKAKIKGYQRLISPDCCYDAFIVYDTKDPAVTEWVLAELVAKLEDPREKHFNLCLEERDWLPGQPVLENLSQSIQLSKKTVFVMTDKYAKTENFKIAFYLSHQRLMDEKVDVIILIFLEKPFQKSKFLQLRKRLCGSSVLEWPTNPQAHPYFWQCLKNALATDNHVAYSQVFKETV

Compound	IC50 (human TLR7) [nM]	IC50 (human TLR8; [1]) [nM]	IC50 (human TLR9; [2]) [nM]	IC50 (human TLR8) [nM]	IC50 (human TLR9) [nM]	IC50 (human TLR7; listed as 700) [nM]	IC50 (human TLR8; read-out: TLR8 IC50, HEK-Blue cells overexpressing human TLR8, R848 15.9 μM, SEAP reporter, listed as 700) [nM]	IC50 (human TLR9; read-out: TLR9 IC50, HEK-Blue cells overexpressing human TLR9, ODN2006 5 nM, SEAP reporter, listed as 700) [nM]
Cc1cc(-c2[nH]c3ccc(C(C)(C)C(=O)N4CC5CNC5C4)cc3c2C(C)C)ccn1 (stereo not drawn) [Example 185, 1-(3,6-diazabicyclo[3.2.0]heptan-3-yl)-2-(3-isopropyl-2-(2-methylpyridin-4-yl)-1H-indol-5-yl)-2-methylpropan-1-one]	71	554	11900					
Cc1cc(-c2[nH]c3ccc(C(C)C(=O)NC4CCC5CNCC54)cc3c2C(C)C)ccn1 (stereo not drawn) [Example 186, 2-(3-isopropyl-2-(2-methylpyridin-4-yl)-1H-indol-5-yl)-N-(octahydrocyclopenta[c]pyrrol-4-yl)propanamide]	146	100	599					
Cc1cc(-c2[nH]c3ccc(C(C)C(=O)NC4CCC5CNCC54)cc3c2C(C)C)ccn1 (stereo not drawn) [Example 187, 2-(3-isopropyl-2-(2-methylpyridin-4-yl)-1H-indol-5-yl)-N-(octahydrocyclopenta[c]pyrrol-4-yl)propanamide]	223	496	1350					
Cc1cc(-c2[nH]c3ccc(C(C)C(=O)N[C@@H]4CCNC4)cc3c2C(C)C)ccn1 (stereo partly drawn) [Example 188, 2-(3-isopropyl-2-(2-methylpyridin-4-yl)-1H-indol-5-yl)-N—((R)-pyrrolidin-3-yl)propanamide]	458	387	2620					
Cc1cc(-c2[nH]c3ccc(C(C)C(=O)N[C@H]4CCNC4)cc3c2C(C)C)ccn1 (stereo partly drawn) [Example 189, 2-(3-isopropyl-2-(2-methylpyridin-4-yl)-1H-indol-5-yl)-N—((S)-pyrrolidin-3-yl)propanamide]	268	246	1680					
Cc1cc(-c2[nH]c3ccc(C(C)C(=O)N[C@H]4CCNC4)cc3c2C(C)C)ccn1 (stereo partly drawn) [Example 190, 2-(3-isopropyl-2-(2-methylpyridin-4-yl)-1H-indol-5-yl)-N—((S)-pyrrolidin-3-yl)propanamide]	137	211	957					
Cc1cc(-c2[nH]c3ccc(C(C)C(=O)NC4CN5CCC4CC5)cc3c2C(C)C)ccn1 (stereo not drawn) [Example 191, 2-(3-isopropyl-2-(2-methylpyridin-4-yl)-1H-indol-5-yl)-N-(quinuclidin-3-yl)propanamide]	175	209	1290					
Cc1cc(-c2[nH]c3ccc(C(C)C(=O)NC4CN5CCC4CC5)cc3c2C(C)C)ccn1 (stereo not drawn) [Example 192, 2-(3-isopropyl-2-(2-methylpyridin-4-yl)-1H-indol-5-yl)-N-(quinuclidin-3-yl)propanamide]	71	142	1530					
Cc1cc(-c2[nH]c3ccc(C(C)C(=O)NC4CCNCC4)cc3c2C(C)C)ccn1 (stereo not drawn) [Example 193, 2-(3-isopropyl-2-(2-methylpyridin-4-yl)-1H-indol-5-yl)-N-(piperidin-4-yl)propanamide]	203	147	3370					
Cc1cc(-c2[nH]c3ccc(C(C)C(=O)NC4CCN(C(C)C)CC4)cc3c2C(C)C)ccn1 (stereo not drawn) [Example 194, 2-(3-isopropyl-2-(2-methylpyridin-4-yl)-1H-indol-5-yl)-N-(1-isopropylpiperidin-4-yl)propanamide]	152			106	3890			
Cc1cc(-c2[nH]c3ccc(C(C)C(=O)N[C@@H]4CCCNC4)cc3c2C(C)C)ccn1 (stereo partly drawn) [Example 195, 2-(3-isopropyl-2-(2-methylpyridin-4-yl)-1H-indol-5-yl)-N—((R)-piperidin-3-yl)propanamide]	273	75	912					
Cc1cc(-c2[nH]c3ccc(C(C)C(=O)N[C@@H]4CCCNC4)cc3c2C(C)C)ccn1 (stereo partly drawn) [Example 196, 2-(3-isopropyl-2-(2-methylpyridin-4-yl)-1H-indol-5-yl)-N—((R)-piperidin-3-yl)propanamide]	51	88	866					
Cc1cc(-c2[nH]c3ccc(C(C)C(=O)N4CC5CN(C)CC5C4)cc3c2C(C)C)ccn1 (stereo not drawn) [Example 197, 2-(3-isopropyl-2-(2-methylpyridin-4-yl)-1H-indol-5-yl)-1-(5-methylhexahydropyrrolo[3,4-c]pyrrol-2(1H)-yl)propan-1-one]	200	130	3290					
Cc1cc(-c2[nH]c3ccc(C(C)C(=O)N4CCC5(CCN(C)C5)CC4)cc3c2C(C)C)ccn1 (stereo not drawn) [Example 198, 2-(3-isopropyl-2-(2-methylpyridin-4-yl)-1H-indol-5-yl)-1-(2-methyl-2,8-diazaspiro[4.5]decan-8-yl)propan-1-one]	46	72	1310					
Cc1cc(-c2[nH]c3ccc(C(C)C(=O)N4CCC(CN)C4)cc3c2C(C)C)ccn1 (stereo not drawn) [Example 199, 1-(3-(aminomethyl)pyrrolidin-1-yl)-2-(3-isopropyl-2-(2-methylpyridin-4-yl)-1H-indol-5-yl)propan-1-one]	443	303	1210					
Cc1cc(-c2[nH]c3ccc(C(C)C(=O)N4CCCC5(CCCCC5N)C4)cc3c2C(C)C)ccn1 (stereo not drawn) [Example 200, 1-(7-amino-2-azaspiro[5.5]undecan-2-yl)-2-(3-isopropyl-2-(2-methylpyridin-4-yl)-1H-indol-5-yl)propan-1-one]						12	69	690
Cc1cc(-c2[nH]c3ccc(C(C)C(=O)N4CCCC5(CCCCC5N)C4)cc3c2C(C)C)ccn1 (stereo not drawn) [Example 201, 1-(7-amino-2-azaspiro[5.5]undecan-2-yl)-2-(3-isopropyl-2-(2-methylpyridin-4-yl)-1H-indol-5-yl)propan-1-one]	74	70	1870					
Cc1cc(-c2[nH]c3ccc(C(C)C(=O)N4CCC(CN)CC4)cc3c2C(C)C)ccn1 (stereo not drawn) [Example 202, 1-(4-(aminomethyl)piperidin-1-yl)-2-(3-isopropyl-2-(2-methylpyridin-4-yl)-1H-indol-5-yl)propan-1-one]	174	534	1350					
Cc1cc(-c2[nH]c3ccc(C(C)C(=O)N4CCC(N)CC4)cc3c2C(C)C)ccn1 (stereo not drawn) [Example 203, 1-(4-aminopiperidin-1-yl)-2-(3-isopropyl-2-(2-methylpyridin-4-yl)-1H-indol-5-yl)propan-1-one]	296	365	746					
Cc1cc(-c2[nH]c3ccc(C(C)C(=O)N4CCC[C@H](N)C4)cc3c2C(C)C)ccn1 (stereo partly drawn) [Example 204, 1-((S)-3-aminopiperidin-1-yl)-2-(3-isopropyl-2-(2-methylpyridin-4-yl)-1H-indol-5-yl)propan-1-one]	74	119	939					
Cc1cc(-c2[nH]c3ccc(C(C)C(=O)N4CCCC(CN)C4)cc3c2C(C)C)ccn1 (stereo not drawn) [Example 205, 1-(3-(aminomethyl)piperidin-1-yl)-2-(3-isopropyl-2-(2-methylpyridin-4-yl)-1H-indol-5-yl)propan-1-one]	277	341	2460					
Cc1cc(-c2[nH]c3ccc(C(C)C(=O)N4CCCC(CCN)C4)cc3c2C(C)C)ccn1 (stereo not drawn) [Example 206, 1-(3-(2-aminoethyl)piperidin-1-yl)-2-(3-isopropyl-2-(2-methylpyridin-4-yl)-1H-indol-5-yl)propan-1-one]	517	126	686					
Cc1cc(-c2[nH]c3ccc(C(C)C(=O)N(C)C4CCNCC4)cc3c2C(C)C)ccn1 (stereo not drawn) [Example 207, 2-(3-isopropyl-2-(2-methylpyridin-4-yl)-1H-indol-5-yl)-N-methyl-N-(piperidin-4-yl)propanamide]	172	156	396					
Cc1cc(-c2[nH]c3ccc(C(C)C(=O)NC[C@@H]4CCNC4)cc3c2C(C)C)ccn1 (stereo partly drawn) [Example 208, 2-(3-isopropyl-2-(2-methylpyridin-4-yl)-1H-indol-5-yl)-N—(((R)-pyrrolidin-3-yl)methyl)propanamide]	1290	2570	7310					
Cc1cc(-c2[nH]c3ccc(C(C)C(=O)N(C)C4CCCNC4)cc3c2C(C)C)ccn1 (stereo not drawn) [Example 209, 2-(3-isopropyl-2-(2-methylpyridin-4-yl)-1H-indol-5-yl)-N-methyl-N-(piperidin-3-yl)propanamide]	103	96	685					
Cc1cc(-c2[nH]c3ccc(C(C)C(=O)N(C)C4CCCNC4)cc3c2C(C)C)ccn1 (stereo not drawn) [Example 210, 2-(3-isopropyl-2-(2-methylpyridin-4-yl)-1H-indol-5-yl)-N-methyl-N-(piperidin-3-yl)propanamide]	280	210	718					
Cc1cc(-c2[nH]c3ccc(C(C)C(=O)N(C)C4CN5CCC4CC5)cc3c2C(C)C)ccn1 (stereo not drawn) [Example 211, 2-(3-isopropyl-2-(2-methylpyridin-4-yl)-1H-indol-5-yl)-N-methyl-N-(quinuclidin-3-yl)propanamide]	50	51	472					
Cc1cc(-c2[nH]c3ccc(C(C)C(=O)NC[C@H]4CCNC4)cc3c2C(C)C)ccn1 (stereo partly drawn) [Example 212, 2-(3-isopropyl-2-(2-methylpyridin-4-yl)-1H-indol-5-yl)-N—(((S)-pyrrolidin-3-yl)methyl)propanamide]	821	1470	5000					
Cc1cc(-c2[nH]c3ccc(C(C)C(=O)NCC4CCCNC4)cc3c2C(C)C)ccn1 (stereo not drawn) [Example 213, 2-(3-isopropyl-2-(2-methylpyridin-4-yl)-1H-indol-5-yl)-N-(piperidin-3-ylmethyl)propanamide]	466	241	2640					
